Data on one molecule can be found in patent US4598084A, “Optically active derivatives of N-arylated oxazolidine-2-one, the process for preparing same and their application in therapeutics” (Delalande S.A., priority 1982, dated 1986).

Data set [1] addresses T1, type B monoamine oxidase (MAO.B) (Rattus norvegicus, UniProt P19643).
T1 construct: the brains being removed, weighed, homogeneized; from tissue; host or cells: brain of orally dosed rats, homogenized
T1 sequence (P19643 1-520): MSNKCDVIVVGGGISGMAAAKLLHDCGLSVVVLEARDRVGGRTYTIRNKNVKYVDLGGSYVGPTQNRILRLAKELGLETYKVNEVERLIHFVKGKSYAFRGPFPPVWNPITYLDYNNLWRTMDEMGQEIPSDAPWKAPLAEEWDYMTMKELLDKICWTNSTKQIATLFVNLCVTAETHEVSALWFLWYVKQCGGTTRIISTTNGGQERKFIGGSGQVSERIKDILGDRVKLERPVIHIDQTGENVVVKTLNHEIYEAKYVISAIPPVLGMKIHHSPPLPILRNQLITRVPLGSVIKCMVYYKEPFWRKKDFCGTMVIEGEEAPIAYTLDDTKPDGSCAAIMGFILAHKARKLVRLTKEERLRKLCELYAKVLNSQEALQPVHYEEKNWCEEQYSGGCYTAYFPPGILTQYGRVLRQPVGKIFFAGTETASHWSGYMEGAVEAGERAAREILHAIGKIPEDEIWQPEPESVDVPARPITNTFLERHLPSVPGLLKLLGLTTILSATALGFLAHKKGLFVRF
The data set is described as follows: in vitro MAO.B inhibition on homogenized rat brain, phenylethylamine (PEA) substrate. Type of data set: biochemical, rats. To be noted: Table 1, rat brain homogenate, read-out: MAO.B inhibition effect (P.E.A.) IC 50. From the text:
(§1) in vitro, on the homogeneized brain of rats, by measuring the dose inhibiting by 50% (IC 50) the activity of monoamine oxidase (MAO) by taking phenylethylamine (PEA) as substrate of type B monoamine oxidase (MAO.B) and serotonine (5-HT) as substrate of type A monoamine oxidase (MAO.A), according to the procedure described by M. STROLIN BENEDETTI et al. in: Monoamine oxidase Basic and Clinical Frontiers, publishers K. KAMISO-E. USDIN-T. NAGATSO-Excepta Medica (1982)-page 209);

The target of data set [2] is T2, type A monoamine oxidase (MAO.A) (Rattus norvegicus, UniProt P21396).
T2 construct: the brains being removed, weighed, homogeneized; from tissue; host or cells: brain of orally dosed rats, homogenized
T2 sequence (P21396 1-526): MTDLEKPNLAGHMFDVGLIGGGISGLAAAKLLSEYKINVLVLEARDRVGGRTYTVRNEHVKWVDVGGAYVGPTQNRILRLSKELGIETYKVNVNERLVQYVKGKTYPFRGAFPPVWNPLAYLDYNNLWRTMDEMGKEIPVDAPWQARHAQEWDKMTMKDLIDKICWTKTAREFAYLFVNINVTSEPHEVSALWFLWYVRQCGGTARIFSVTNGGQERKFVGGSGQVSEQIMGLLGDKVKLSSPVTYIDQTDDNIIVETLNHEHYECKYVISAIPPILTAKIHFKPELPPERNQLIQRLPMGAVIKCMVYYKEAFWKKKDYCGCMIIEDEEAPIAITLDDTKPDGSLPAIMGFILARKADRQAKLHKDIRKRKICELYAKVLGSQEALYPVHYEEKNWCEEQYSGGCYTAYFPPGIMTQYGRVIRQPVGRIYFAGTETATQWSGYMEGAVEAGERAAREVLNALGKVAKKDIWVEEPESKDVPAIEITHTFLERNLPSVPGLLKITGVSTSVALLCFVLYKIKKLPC
Put plainly: in vitro MAO.A inhibition on homogenized rat brain, serotonine (5-HT) substrate. The format is biochemical, rats. Conditions: Table 1, rat brain homogenate, read-out: MAO.A inhibition effect (5-HT) IC 50.
Excerpt: as §1

Data set [3] deals with T1, type B monoamine oxidase (MAO.B). The data set is described as follows: ex vivo brain MAO.B inhibition after single oral dose in rats, PEA substrate. Conditions: for inhibition at 5 mg/kg: rat, po, Table 2, 5 mg/kg p.o., rats, read-out: % MAO inhibition effect after n hour(s), PEA (IMAO.B). Here is the method:
(§2) ex vivo, on rats to which was administered orally a single dose of the compounds of formula (I) (or their pharmaceutically acceptable salts) or their corresponding racemic of formula (Io), in a 0.5% suspension in methylcellulose, the rats being sacrificed by being beheaded at varying times, the brains being removed, weighed, homogeneized and the determination of the MAOI activity being made by using serotonine and phenylethylamine, according to the procedure described by J. P. KAN and M. STROLIN-BENEDETTI in Life Sciences 26, 2165, (1980).

Data set [4] has as its target T2, type A monoamine oxidase (MAO.A). The data set is described as follows: ex vivo brain MAO.A inhibition after single oral dose in rats, 5-HT substrate. To be noted: Table 2, 5 mg/kg p.o., rats, read-out: % MAO inhibition effect after n hour(s), 5-HT (IMAO.A). How it is done: as §2
A short description of data set [5]: oral acute toxicity in mice (Miller and Tainter's method). Type of data set: in vivo. Conditions: mouse, in vivo; Table 2; mice, oral; read-out: Acute toxicity (mice) LD 50. The source says: (§3) The results obtained in the in vitro test are shown in table 1 below and the results obtained in the ex vivo test, as well as the oral acute toxicity in mice evaluated according to MILLER and TAINTER's method [Proc. Soc.

For another data set, the system named is mice. The description is as above. The format is in vivo. Conditions: in words.
Excerpt: as §3

SMILES strings stand for the structures. Read-outs that look alike come from different tables or passages of the source. A value given as a limit tells only on which side of the number the result lay.

The inhibition is the change of the read-out against control, counted positive when it falls. Regarding `CNC[C@@H]1CN(c2ccc(OCc3cccc(Cl)c3)cc2)C(=O)O1` [(Ib), [R(+)] 5-N-methylaminomethyl 3-p-(meta-chlorobenzyloxy)phenyl oxazolidine-2-one], the values for the IC50 in data set [1] and in data set [2] were 30 nM and 50 µM, respectively. In addition, the specificity and reversibility result in data set [3] (in words, compared with racemic) is “much greater specificity and reversibility”. Besides, the level of activity entry in data set [3] (in words, compared with racemic or dose) was “level of activity similar to that of its racemic”. Besides, the inhibition at 5 mg/kg is 74% in data set [3] (1 hour); 77% in data set [3] (2 hours); 71% in data set [3] (4 hours); 61% in data set [3] (8 hours); 6% in data set [3] (24 hours); 5% in data set [3] (48 hours). Besides, the inhibition at 5 mg/kg in data set [3] (72 hours) was 0%; in data set [4] (1 hour), -1%; in data set [4] (2 hours), 0%; in data set [4] (4 hours), 0%; in data set [4] (8 hours), 1%; in data set [4] (24 hours), -1%. The figures for the inhibition at 5 mg/kg in data set [4] (48 hours) and in data set [4] (72 hours) were -3% and 3%, respectively. For the same molecule, the LD50 in data set [5] was above 1000 mg/kg. In addition, the “active doses relative to lethal 50 doses” value in the data set with mice is listed as “activities at doses much less than the lethal 50 doses”.
